Test results taken from publication PMC4744035, “In Vivo, In Vitro, and In Silico Characterization of Peptoids as Antimicrobial Agents” (PLoS ONE, 2016).
Converted amounts (≈) assume the structure as drawn. Square brackets hold non-standard residues; d marks the D form. Peptide text beside a SMILES is read from it. Nspe = C[C@H](NCC(=O)O)c1ccccc1; Nlys = NCCCCNCC(=O)O

How the values were obtained:
E. coli ATCC 35218 = format: cell-based
In short: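 MICs determined by 2:1 serial broth microdilution in cation-adjusted Mueller-Hinton broth per CLSI M7-A6, using inoculum at 1 x 10^6 CFU/mL mixed 1:1 with peptoid solution. Three independent replicates, each with two parallel trials.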

E. faecium T62764 (VRE) = test: microbe, parasite or virus in culture; conditions: T62764 (VRE)
In short: (§1)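 Modified broth microdilution in Mueller Hinton medium, polypropylene plates; agents serially diluted in 0.01% acetic acid with 0.2% BSA. Inoculum 2–7 x 10^5 CFU/mL from overnight culture, incubated overnight at 37°C. MIC taken as lowest concentration with no visible growth.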

P. aeruginosa 198 (MDR) = test: microbe, parasite or virus in culture; conditions: 198 (MDR)
In short: as §1

P. maltophilia ATCC13637 = test: microbe, parasite or virus in culture; conditions: ATCC13637
In short: as §1

E. faecalis ATCC29212 = test: microbe, parasite or virus in culture; conditions: ATCC29212
In short: as §1

[1] = system: P. aeruginosa LES400 (MDR); test: microbe, parasite or virus in culture; conditions: LES400 (MDR)
In short: as §1

[2] = system: K. pneumonia 61962 (ESBL); test: microbe, parasite or virus in culture
In short: as §1

[3] = system: K. pneumonia 63575 (ESBL); test: microbe, parasite or virus in culture
In short: as §1

[4] = system: P. aeruginosa H1027 (MDR); test: microbe, parasite or virus in culture; conditions: H1027 (MDR)
In short: as §1

S. aureus C623 (MRSA) = test: microbe, parasite or virus in culture; conditions: C623
In short: as §1

E. faecium mic80 (VRE) = test: microbe, parasite or virus in culture; conditions: mic80 (VRE)
In short: as §1

[5] = system: E. cloacae 218R Class C β-lactamase; test: microbe, parasite or virus in culture; conditions: 218R Class C β-lactamase
In short: as §1

E. coli 63103 (ESBL) = test: microbe, parasite or virus in culture; conditions: 63103 (ESBL)
In short: as §1

E. faecalis F43559 (VRE) = test: microbe, parasite or virus in culture; conditions: F43559 (VRE)
In short: as §1

E. faecalis W61950 (VRE) = test: microbe, parasite or virus in culture; conditions: W61950 (VRE)
In short: as §1

P. aeruginosa 213 (MDR) = test: microbe, parasite or virus in culture; conditions: 213 (MDR)
In short: as §1

S. aureus ATCC25923 = test: microbe, parasite or virus in culture; conditions: ATCC25923
In short: as §1

E. coli 64771 (ESBL) = test: microbe, parasite or virus in culture; conditions: 64771 (ESBL)
In short: as §1

[6] = system: P. aeruginosa H103 (wild type); test: microbe, parasite or virus in culture; conditions: H103 (wild type)
In short: as §1

P. aeruginosa 9 (MDR) = test: microbe, parasite or virus in culture; conditions: 9 (MDR)
In short: as §1

[7] = system: P. aeruginosa H1030 (MDR); test: microbe, parasite or virus in culture; conditions: P. aeruginosa H1030 (MDR)
In short: as §1

NIH 3T3 cells = test: Metabolic activity, MTS assay; format: cell-based, mouse
Experimental: NIH 3T3 mouse fibroblast cells were cultured in complete Dulbecco’s Modified Eagle’s Media. A peptoid solution plate (100 µL per well) was prepared by serial dilution of aqueous peptoid stock solutions in Hank’s balanced salt solution. A day-old cell monolayer was washed thoroughly with Hank’s balanced salt solution and replenished with 100 µL Hank’s balanced salt solution per well. Peptoid solutions were transferred onto the day-old cell monolayers, which contained approximately 5000 cells per well. […] The average of six replicate trials is reported.

erythrocytes = test: Hemolytic activity (HD10/HD50); format: cell-based
Text: Table 1 Characteristics of antimicrobial peptoids, screened for activity against B. subtilis and E. coli bacterial strains. | column: HD10 / HD50

SMILES: C[C@@H](c1ccccc1)N(CC(N)=O)C(=O)CN(CCCCN)C(=O)CN(CCCCN)C(=O)CN(C(=O)CN(C(=O)CN(CCCCN)C(=O)CN(C(=O)CN(CCCCN)C(=O)CN(CCCCN)C(=O)CN(C(=O)CN(C(=O)CNCCCCN)[C@@H](C)c1ccccc1)[C@@H](C)c1ccccc1)[C@@H](C)c1ccccc1)[C@@H](C)c1ccccc1)[C@@H](C)c1ccccc1 [1-NLys5,11, H-(NLys-Nspe-Nspe-NLys-NLys-Nspe)2-NH2] (H-[Nlys][Nspe][Nspe][Nlys][Nlys][Nspe][Nlys][Nspe][Nspe][Nlys][Nlys][Nspe]-NH2)
- MIC E. coli (E. coli ATCC 35218): 50 µM (≈ 87.7 µg/mL)
- MIC (E. faecium T62764 (VRE)): 8 µg/mL (≈ 4.56 µM)
- MIC (P. aeruginosa 198 (MDR)): 8 µg/mL (≈ 4.56 µM)
- MIC (P. maltophilia ATCC13637): 0.5 µg/mL (≈ 0.285 µM)
- MIC (E. faecalis ATCC29212): 256 µg/mL (≈ 146 µM)
- MIC [1]: 8 µg/mL (≈ 4.56 µM)
- MIC [2]: 256 µg/mL (≈ 146 µM)
- MIC [3]: 128 µg/mL (≈ 73 µM)
- MIC [4]: 0.13 µg/mL (≈ 0.0741 µM)
- MIC (S. aureus C623 (MRSA)): 64 µg/mL (≈ 36.5 µM)
- MIC (E. faecium mic80 (VRE)): 16 µg/mL (≈ 9.13 µM)
- MIC [5]: 32 µg/mL (≈ 18.3 µM)
- MIC (E. coli 63103 (ESBL)): 128 µg/mL (≈ 73 µM)
- MIC (E. faecalis F43559 (VRE)): 256 µg/mL (≈ 146 µM)
- MIC (E. faecalis W61950 (VRE)): 256 µg/mL (≈ 146 µM)
- MIC (P. aeruginosa 213 (MDR)): 8 µg/mL (≈ 4.56 µM)
- MIC (S. aureus ATCC25923): 64 µg/mL (≈ 36.5 µM)
- MIC (E. coli 64771 (ESBL)): 32 µg/mL (≈ 18.3 µM)
- MIC [6]: 2 µg/mL (≈ 1.14 µM)
- MIC (P. aeruginosa 9 (MDR)): 64 µg/mL (≈ 36.5 µM)
- MIC [7]: 64 µg/mL (≈ 36.5 µM)
- ID50 (inhibitory dose, metabolic activity) (NIH 3T3 cells): 85 µM
- HD10 (hemolytic activity) (erythrocytes): >100 / >100
- HD50 (hemolytic activity) (erythrocytes): >100 / >100

SMILES: C[C@H](NCC(=O)N(CC(=O)N(CCCCN)CC(=O)N(CC(=O)N(CCCCN)CC(=O)N(CC(=O)N(CCCCN)CC(=O)N(CC(=O)N(CC(=O)N(CC(=O)N(CC(=O)N(CCCCN)CC(N)=O)[C@@H](C)c1ccccc1)[C@@H](C)c1ccccc1)[C@@H](C)c1ccccc1)[C@@H](C)c1ccccc1)[C@@H](C)c1ccccc1)[C@@H](C)c1ccccc1)[C@@H](C)c1ccccc1)c1ccccc1 [Peptoid 1scr, H-(Nspe)2-(NLys-Nspe)3-(Nspe)3-NLys-NH2] (H-[Nspe][Nspe][Nlys][Nspe][Nlys][Nspe][Nlys][Nspe][Nspe][Nspe][Nspe][Nlys]-NH2)
- MIC E. coli (E. coli ATCC 35218): 6.3 µM (≈ 11.5 µg/mL)
- MIC (E. faecium T62764 (VRE)): 2 µg/mL (≈ 1.1 µM)
- MIC (P. aeruginosa 198 (MDR)): 32 µg/mL (≈ 17.6 µM)
- MIC (P. maltophilia ATCC13637): 2 µg/mL (≈ 1.1 µM)
- MIC (E. faecalis ATCC29212): 8 µg/mL (≈ 4.4 µM)
- MIC [1]: 16 µg/mL (≈ 8.79 µM)
- MIC [2]: 128 µg/mL (≈ 70.4 µM)
- MIC [3]: 64 µg/mL (≈ 35.2 µM)
- MIC [4]: 4 µg/mL (≈ 2.2 µM)
- MIC (S. aureus C623 (MRSA)): 8 µg/mL (≈ 4.4 µM)
- MIC (E. faecium mic80 (VRE)): 8 µg/mL (≈ 4.4 µM)
- MIC [5]: 32 µg/mL (≈ 17.6 µM)
- MIC (E. coli 63103 (ESBL)): 64 µg/mL (≈ 35.2 µM)
- MIC (E. faecalis F43559 (VRE)): 8 µg/mL (≈ 4.4 µM)
- MIC (E. faecalis W61950 (VRE)): 32 µg/mL (≈ 17.6 µM)
- MIC (P. aeruginosa 213 (MDR)): 16 µg/mL (≈ 8.79 µM)
- MIC (S. aureus ATCC25923): 8 µg/mL (≈ 4.4 µM)
- MIC (E. coli 64771 (ESBL)): 16 µg/mL (≈ 8.79 µM)
- MIC [6]: 16 µg/mL (≈ 8.79 µM)
- MIC (P. aeruginosa 9 (MDR)): 256 µg/mL (≈ 141 µM)
- MIC [7]: 64 µg/mL (≈ 35.2 µM)
- ID50 (inhibitory dose, metabolic activity) (NIH 3T3 cells): 8.5 µM
- HD10 (hemolytic activity) (erythrocytes): 64
- HD50 (hemolytic activity) (erythrocytes): > 200

SMILES: C[C@@H](c1ccccc1)N(CC(N)=O)C(=O)CN(Cc1ccccc1)C(=O)CN(CCCCN)C(=O)CN(Cc1ccccc1)C(=O)CN(Cc1ccccc1)C(=O)CN(CCCCN)C(=O)CN(Cc1ccccc1)C(=O)CN(Cc1ccccc1)C(=O)CN(CCCCN)C(=O)CN(Cc1ccccc1)C(=O)CN(Cc1ccccc1)C(=O)CNCCCCN [Peptoid 1ach-Nspe12, H-(NLys-Npm-Npm)3-(NLys-Npm-Nspe)-NH2]
- MIC E. coli (E. coli ATCC 35218): 6.3 µM (≈ 10.8 µg/mL)
- MIC (E. faecium T62764 (VRE)): 1 µg/mL (≈ 0.581 µM)
- MIC (P. aeruginosa 198 (MDR)): 8 µg/mL (≈ 4.65 µM)
- MIC (P. maltophilia ATCC13637): 1 µg/mL (≈ 0.581 µM)
- MIC (E. faecalis ATCC29212): 8 µg/mL (≈ 4.65 µM)
- MIC [1]: 4 µg/mL (≈ 2.32 µM)
- MIC [2]: 128 µg/mL (≈ 74.4 µM)
- MIC [3]: 32 µg/mL (≈ 18.6 µM)
- MIC [4]: 1 µg/mL (≈ 0.581 µM)
- MIC (S. aureus C623 (MRSA)): 8 µg/mL (≈ 4.65 µM)
- MIC (E. faecium mic80 (VRE)): 4 µg/mL (≈ 2.32 µM)
- MIC [5]: 16 µg/mL (≈ 9.3 µM)
- MIC (E. coli 63103 (ESBL)): 16 µg/mL (≈ 9.3 µM)
- MIC (E. faecalis F43559 (VRE)): 16 µg/mL (≈ 9.3 µM)
- MIC (E. faecalis W61950 (VRE)): 16 µg/mL (≈ 9.3 µM)
- MIC (P. aeruginosa 213 (MDR)): 4 µg/mL (≈ 2.32 µM)
- MIC (S. aureus ATCC25923): 4 µg/mL (≈ 2.32 µM)
- MIC (E. coli 64771 (ESBL)): 4 µg/mL (≈ 2.32 µM)
- MIC [6]: 4 µg/mL (≈ 2.32 µM)
- MIC (P. aeruginosa 9 (MDR)): 64 µg/mL (≈ 37.2 µM)
- MIC [7]: 32 µg/mL (≈ 18.6 µM)
- ID50 (inhibitory dose, metabolic activity) (NIH 3T3 cells): 15 µM
- HD10 (hemolytic activity) (erythrocytes): 164
- HD50 (hemolytic activity) (erythrocytes): > 200
